Reference: PubChem BioAssay AID1963967 (Molecular Pharmacology Branch, DTP, NCI, 2024)
“And” between values parts separate entries of the source, which are not always exact repeats. Identical values can stand only once.

Tested on: 855422-203-R-J1-PDC spheroids with HUVEC/MSC, viability
Experiment: Anticancer human tumor 855422-203-R-J1-PDC patient-derived bladder carcinoma cell line growth inhibition [PI3K]
Conditions: for viability, T/C: stronger effect = lower value
From the text: Combinatorial screen of targeted agents with the PI3K inhibitors inavolisib, alpelisib, duvelisib, and copanlisib in multi-cell type tumor spheroids
A high-throughput screen of multi-cell type tumor spheroids was designed to identify active combinations of targeted small molecules and PI3K pathway inhibitors. Complex spheroids include a stromal component modeled by human endothelial cells (HUVEC) and fibroblasts modeled by human mesenchymal stem cells (MSCs). The concentration ranges selected for each drug and investigational agent were based upon clinically achievable concentrations if the clinical Cmax of the agent was known.
Compounds. The drugs and investigational agents: inavolisib (NSC800729), alpelisib (NSC765974), duvelisib (NSC772469), copanlisib (NSC816437), ipatasertib (NSC767898), afuresertib (NSC778305), talazoparib (NSC767125), sapanisertib (NSC764658), selumetinib (NSC741078), tovorafenib (DAY101, NSC766906), vemurafenib (NSC761431), ravoxertinib (NSC781343), sotorasib (NSC818433), MRTX1133 (NSC 836407), abemaciclib (NSC 768073), palbociclib (NSC758247), venetoclax (NSC 766270), SY5609 (NSC837396), enzalutamide (NSC755605), and darolutamide (NSC825331), were obtained from the National Cancer Institute (NCI) Developmental Therapeutics Program Chemical Repository. The FDA-approved anticancer drug set is available from the NCI Developmental Therapeutics Program. […] The stock solutions were prepared in dimethyl sulfoxide (DMSO, Sigma-Aldrich, St. Louis, MO, cat. D2650) at 800-fold the tested concentration and stored at -70 degrees C prior to their use. All drugs and investigational agents were tested over a range starting from a high concentration at or near the clinical Cmax and decreasing in half-log increments. If the clinical Cmax for an agent had not been determined, the highest concentration tested was 10 microM.
Cell Culture. All cells were maintained in an incubator at 37 degrees C and 5% CO2 with 95% humidity. The PDC lines were cultured according to standard operating procedures established by the NCI PDMR (https://pdmr.cancer.gov/sops/default.htm). All PDCs were thawed and cultured in Matrigel-coated flasks prepared with a working solution of 1X Ham's F-12 nutrient mix, without supplementation (Invitrogen, Waltham, MA, cat. 11765054), 100 U/mL penicillin-streptomycin (Invitrogen, cat. 15140122), and 2.5% Matrigel (Corning Inc., Corning, NY, cat. 354248) for the first three passages. The 354836-022-R-J1-PDC, 475296-252-R-J1-PDC, and 997726-040-R-J2-PDC lines were cultured in 6A media, which includes advanced DMEM/F-12 (Thermo Fisher Scientific, cat. 12634028), 10 mM HEPES (Thermo Fisher Scientific, cat. 15630080), 1X GlutaMAX supplement (Thermo Fisher Scientific, cat. 35050061), 0.1 mg/mL primocin (InvivoGen, San Diego, CA, cat. ant-pm-2), 10% defined fetal bovine serum, heat inactivated (HyClone Laboratories Inc., Logan, UT, cat. SH30070.03HI), 50% L-WRN conditioned media (ATCC, cat. CRL-3276), 1.25 mM N-Acetyl-L-cysteine (Sigma-Aldrich, cat. A9165), 10 mM nicotinamide (Sigma-Aldrich, cat. N0636), 1X B-27 supplement (Thermo Fisher Scientific, cat. 17504044), 1X N-2 supplement (Thermo Fisher Scientific, cat. 17502048), and 10 microM Y-27632 dihydrochloride (Tocris Bioscience, Bristol, United Kingdom, cat. 1254). The 624824-186-R-J2-PDC line was cultured in 6C/Colon 1B media, which includes all 6A media components plus 50 ng/mL human EGF recombinant protein (Thermo Fisher Scientific, cat. PHG0311). […]

[1] = curve of first compound, second compound 0.0316 µM
[2] = curve of first compound, second compound 0.1 µM
[3] = curve of first compound, second compound 0.316 µM
[4] = curve of first compound, second compound 1 µM
[5] = second compound 0.0316 µM, first compound 0.0316 µM
[6] = second compound 0.0316 µM, first compound 0.1 µM
[7] = second compound 0.0316 µM, first compound 0.316 µM
[8] = second compound 0.0316 µM, first compound 1 µM
[9] = second compound 0.0316 µM, first compound 3.16 µM
[10] = second compound 0.0316 µM, first compound 10 µM
[11] = second compound 0.1 µM, first compound 0.0316 µM
[12] = second compound 0.1 µM, first compound 0.1 µM
[13] = second compound 0.1 µM, first compound 0.316 µM
[14] = second compound 0.1 µM, first compound 1 µM
[15] = second compound 0.1 µM, first compound 3.16 µM
[16] = second compound 0.1 µM, first compound 10 µM
[17] = second compound 0.316 µM, first compound 0.0316 µM
[18] = second compound 0.316 µM, first compound 0.1 µM
[19] = second compound 0.316 µM, first compound 0.316 µM
[20] = second compound 0.316 µM, first compound 1 µM
[21] = second compound 0.316 µM, first compound 3.16 µM
[22] = second compound 0.316 µM, first compound 10 µM
[23] = second compound 1 µM, first compound 0.0316 µM
[24] = second compound 1 µM, first compound 0.1 µM
[25] = second compound 1 µM, first compound 0.316 µM
[26] = second compound 1 µM, first compound 1 µM
[27] = second compound 1 µM, first compound 3.16 µM
[28] = second compound 1 µM, first compound 10 µM
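Further: agents incubated with spheroids for one week before read-out.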
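Wherever viability, T/C is given: 100% = DMSO vehicle-treated control wells.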

C=CC(=O)N1CCN(c2nc(=O)n(-c3c(C)ccnc3C(C)C)c3nc(-c4c(O)cccc4F)c(F)cc23)C(C)C1 (stereo unspecified) + CC(Nc1ncnc2nc[nH]c12)c1cc2cccc(Cl)c2c(=O)n1-c1ccccc1
IC50 [1]: > 10 µM
IC50 [2]: > 10 µM
IC50 [3]: > 10 µM
IC50 [4]: > 10 µM
IC50 (curve of first compound, second compound 3.16 µM): > 10 µM
IC50 (curve of first compound, second compound 10 µM): > 10 µM
viability, T/C [5]: 107%
viability, T/C [6]: 91.1%
viability, T/C [7]: 112%
viability, T/C [8]: 95%
viability, T/C [9]: 128%
viability, T/C [10]: 133%
viability, T/C [11]: 102%
viability, T/C [12]: 90.7%
viability, T/C [13]: 109%
viability, T/C [14]: 110%
viability, T/C [15]: 119%
viability, T/C [16]: 129%
viability, T/C [17]: 97.5%
viability, T/C [18]: 92%
viability, T/C [19]: 98.3%
viability, T/C [20]: 121%
viability, T/C [21]: 122%
viability, T/C [22]: 122%
viability, T/C [23]: 100%
viability, T/C [24]: 98.7%
viability, T/C [25]: 112%
viability, T/C [26]: 117%
viability, T/C [27]: 122%
viability, T/C [28]: 110%
viability, T/C (second compound 3.16 µM, first compound 0.0316 µM): 102%
viability, T/C (second compound 3.16 µM, first compound 0.1 µM): 102%
viability, T/C (second compound 3.16 µM, first compound 0.316 µM): 104%
viability, T/C (second compound 3.16 µM, first compound 1 µM): 115%
viability, T/C (second compound 3.16 µM, first compound 3.16 µM): 116%
viability, T/C (second compound 3.16 µM, first compound 10 µM): 101%
viability, T/C (second compound 10 µM, first compound 0.0316 µM): 108%
viability, T/C (second compound 10 µM, first compound 0.1 µM): 90.4%
viability, T/C (second compound 10 µM, first compound 0.316 µM): 104%
viability, T/C (second compound 10 µM, first compound 1 µM): 102%
viability, T/C (second compound 10 µM, first compound 3.16 µM): 115%
viability, T/C (second compound 10 µM, first compound 10 µM): 105%

C=CC(=O)N1CCN(c2nc(=O)n(-c3c(C)ccnc3C(C)C)c3nc(-c4c(O)cccc4F)c(F)cc23)C(C)C1 (stereo unspecified)
viability, T/C (compound 0.0316 µM): 109% [middle of 4 runs]
viability, T/C (compound 0.1 µM): 95.2% [middle of 4 runs]
viability, T/C (compound 0.316 µM): 117% [middle of 4 runs]
viability, T/C (compound 1 µM): 108% [middle of 4 runs]
viability, T/C (compound 3.16 µM): 122% [middle of 4 runs]
viability, T/C (compound 10 µM): 121% [middle of 4 runs]
IC50 (curve of compound): > 10 µM

CCCS(=O)(=O)Nc1ccc(F)c(C(=O)c2c[nH]c3ncc(-c4ccc(Cl)cc4)cc23)c1F
viability, T/C (compound 0.1 µM): 96.7% [middle of 4 runs]
viability, T/C (compound 0.316 µM): 108% (2×) and 99.2% and 92.2%
viability, T/C (compound 1 µM): 87.6% [middle of 4 runs]
viability, T/C (compound 3.16 µM): 65.7% [middle of 4 runs]
viability, T/C (compound 10 µM): 0.53% [middle of 4 runs]
IC50 (curve of compound): 4.16 µM [middle of 4 runs]

C=CC(=O)N1CCN(c2nc(=O)n(-c3c(C)ccnc3C(C)C)c3nc(-c4c(O)cccc4F)c(F)cc23)C(C)C1 (stereo unspecified) + COc1c(OCCCN2CCOCC2)ccc2c3n(c(=NC(=O)c4cnc(N)nc4)nc12)CCN3
IC50 (curve of first compound, second compound 0.00316 µM): > 10 µM
IC50 (curve of first compound, second compound 0.01 µM): > 10 µM
IC50 [1]: > 10 µM
IC50 [2]: < 0.0316 µM
IC50 [3]: < 0.0316 µM
IC50 [4]: < 0.0316 µM
viability, T/C (second compound 0.00316 µM, first compound 0.0316 µM): 94%
viability, T/C (second compound 0.00316 µM, first compound 0.1 µM): 90.8%
viability, T/C (second compound 0.00316 µM, first compound 0.316 µM): 116%
viability, T/C (second compound 0.00316 µM, first compound 1 µM): 98.8%
viability, T/C (second compound 0.00316 µM, first compound 3.16 µM): 101%
viability, T/C (second compound 0.00316 µM, first compound 10 µM): 97%
viability, T/C (second compound 0.01 µM, first compound 0.0316 µM): 82%
viability, T/C (second compound 0.01 µM, first compound 0.1 µM): 99.4%
viability, T/C (second compound 0.01 µM, first compound 0.316 µM): 98%
viability, T/C (second compound 0.01 µM, first compound 1 µM): 89.9%
viability, T/C (second compound 0.01 µM, first compound 3.16 µM): 93.6%
viability, T/C (second compound 0.01 µM, first compound 10 µM): 103%
viability, T/C [5]: 52%
viability, T/C [6]: 60.2%
viability, T/C [7]: 66%
viability, T/C [8]: 79.2%
viability, T/C [9]: 87.2%
viability, T/C [10]: 92.6%
viability, T/C [11]: 24.5%
viability, T/C [12]: 34.4%
viability, T/C [13]: 33.5%
viability, T/C [14]: 42.1%
viability, T/C [15]: 37.2%
viability, T/C [16]: 34.9%
viability, T/C [17]: 9.32%
viability, T/C [18]: 8.33%
viability, T/C [19]: 10.5%
viability, T/C [20]: 10.1%
viability, T/C [21]: 11.6%
viability, T/C [22]: 7.98%
viability, T/C [23]: 3.32%
viability, T/C [24]: 4.63%
viability, T/C [25]: 3.78%
viability, T/C [26]: 3.95%
viability, T/C [27]: 3.61%
viability, T/C [28]: 1.93%

Cn1nccc1Nc1nccc(-c2ccn(C(CO)c3ccc(Cl)c(F)c3)c(=O)c2)n1 (stereo unspecified)
viability, T/C (compound 0.0316 µM): 112% [middle of 4 runs]
viability, T/C (compound 0.1 µM): 99.8% [middle of 4 runs]
viability, T/C (compound 0.316 µM): 108% [middle of 4 runs]
viability, T/C (compound 1 µM): 90.7% [middle of 4 runs]
viability, T/C (compound 3.16 µM): 93.1% [middle of 4 runs]
viability, T/C (compound 10 µM): 44% [middle of 4 runs]
IC50 (curve of compound): 8.75 µM [middle of 4 runs]

Cn1cnc2c(F)c(Nc3ccc(Br)cc3Cl)c(C(=O)NOCCO)cc21
viability, T/C (compound 0.00949 µM): 100% [middle of 4 runs]
viability, T/C (compound 0.03 µM): 94.8% [middle of 4 runs]
viability, T/C (compound 0.0949 µM): 101% [middle of 4 runs]
viability, T/C (compound 0.3 µM): 88% [middle of 4 runs]
viability, T/C (compound 0.949 µM): 87.5% [middle of 4 runs]
viability, T/C (compound 3 µM): 47% [middle of 4 runs]
IC50 (curve of compound): 2.81 µM [middle of 4 runs]
